Experimental data reported in the NIST ThermoML archive (doi:10.1016/j.jct.2016.03.030).

Test: xn = mol fraction of the nth substance listed
Details: 100 kPa, Liquid; for viscosity: Falling or rolling sphere viscometry; for mass density: Vibrating tube method

CCCCC[N+]1(C)CCCCC1.[Br-] [1-methyl-1-pentylpiperidinium bromide] + O
Details	mass density, 323.15 K [kg/m3]	mass density, 328.15 K [kg/m3]	mass density, 333.15 K [kg/m3]	mass density, 338.15 K [kg/m3]	mass density, 343.15 K [kg/m3]	viscosity, 323.15 K [mPa·s]	viscosity, 328.15 K [mPa·s]	viscosity, 333.15 K [mPa·s]	viscosity, 338.15 K [mPa·s]	viscosity, 343.15 K [mPa·s]
x1 = 0.003	993.7	990.9	989.3	986	983.6	–	–	–	–	–
x1 = 0.0072	1001.9	999.4	996.3	993.1	990.1	–	–	–	–	–
x1 = 0.0119	1010.3	1007.7	1004.9	1002	999	–	–	–	–	–
x1 = 0.0427	1055.5	1052.2	1048.8	1045.4	1041.8	1.261	1.11	1.034	0.886	0.85
x1 = 0.0615	1074.7	1071.2	1067.6	1064	1060.3	1.945	1.682	1.474	1.3	1.142
x1 = 0.0839	1092.5	1088.9	1085.2	1081.4	1077.7	2.77	2.369	2.055	1.835	1.634
x1 = 0.1192	1113	1109.3	1105.5	1101.8	1098	4.499	3.749	3.014	2.724	2.382
x1 = 0.1491	1125.8	1122.1	1118.4	1114.7	1110.9	6.029	5.354	4.513	4.032	3.697
x1 = 0.2004	1141.2	1137.5	1132.9	1131.2	1126.4	9.723	8.195	7.033	6.088	5.341
x1 = 0.2206	1145.9	1142.3	1138.7	1135.1	1131.5	12.33	10.68	8.945	7.421	6.243
x1 = 0.2393	1150.1	1146.5	1143	1139.4	1135.9	15.88	12.74	10.47	8.696	7.34
x1 = 0.2655	1154.8	1151.3	1147.7	1144.2	1140.6	22.79	18.03	14.56	11.95	9.976
x1 = 0.2745	1156.3	1152.8	1149.3	1145.8	1142.3	25.06	19.71	15.86	12.94	10.75
